Source: patent US11001587B2, “Substituted indazoles as phosphatidylinositol kinase inhibitors” (CUROVIR AB, priority 2017, dated 2021)
pIC50: −log10 of the molar value.

Experiments:
Format in all cases: cell-based
coxsackie B5 virus = experiment: In vitro CPE assay in mammalian cell culture, B5; conditions: viral cytopathic effect in mammalian cell culture, read-out: B5 inhibition capacity (IC50)
Enterovirus 6 = experiment: In vitro CPE assay in mammalian cell culture, EV6; conditions: viral cytopathic effect in mammalian cell culture, read-out: EV6 inhibition capacity (IC50)
polio virus Sabin 1 = experiment: organism not typed; conditions: read-out: Polio 1 inhibition capacity (IC50)
coxsackie B2 virus = experiment: In vitro CPE assay in mammalian cell culture, B2; conditions: viral cytopathic effect in mammalian cell culture, read-out: B2 inhibition capacity (IC50)
coxsackie B3 virus = experiment: In vitro CPE assay in mammalian cell culture, B3; conditions: Enterovirus B, viral cytopathic effect in mammalian cell culture, read-out: B3 inhibition capacity (IC50)
coxsackie B4 virus = experiment: In vitro CPE assay in mammalian cell culture, B4; conditions: Enterovirus B, viral cytopathic effect in mammalian cell culture, read-out: B4 inhibition capacity (IC50)
Enterovirus 71 = experiment: In vitro CPE assay in mammalian cell culture, EV71; conditions: Enterovirus A, viral cytopathic effect in mammalian cell culture, read-out: EV71 inhibition capacity (IC50)
Enterovirus 30 = experiment: In vitro CPE assay in mammalian cell culture, EV30; conditions: viral cytopathic effect in mammalian cell culture, read-out: EV30 inhibition capacity (IC50)
coxsackie B1 virus = experiment: In vitro CPE assay in mammalian cell culture, B1; conditions: viral cytopathic effect in mammalian cell culture, read-out: B1 inhibition capacity (IC50)
Enterovirus 68 = experiment: In vitro CPE assay in mammalian cell culture, EV68; conditions: Enterovirus D, viral cytopathic effect in mammalian cell culture, read-out: EV68 inhibition capacity (IC50)

| Compound | pIC50 (coxsackie B5 virus) | pIC50 (Enterovirus 6) | pIC50 (polio virus Sabin 1) | pIC50 (coxsackie B2 virus) | pIC50 (coxsackie B3 virus) | pIC50 (coxsackie B4 virus) | pIC50 (Enterovirus 71) | pIC50 (Enterovirus 30) | pIC50 (coxsackie B1 virus) | pIC50 (Enterovirus 68) |
| --- | --- | --- | --- | --- | --- | --- | --- | --- | --- | --- |
| Cc1cc(NCc2ccc(F)cc2)n2nc(C)c(-c3ccc4c(c3)c(C)nn4C)c2n1 [Example 19, N-(4-fluorobenzyl)-3-(1,3-dimethyl-1H-indazol-5-yl)-2,5-dimethylpyrazolo[1,5-a]pyrimidin-7-amine] | > 6.00 | > 6.00 | > 6.00 | > 6.00 | > 7.00 | > 6.00 | > 7.00 |  |  |  |
| COc1ccc(CNc2nc(C)nc3c(-c4ccc5c(c4)c(C)nn5C)c(C)nn23)cc1 [Example 21, 8-(1,3-dimethyl-1H-indazol-5-yl)-N-(4-methoxybenzyl)-2,7-dimethylpyrazolo[1,5-a][1,3,5]triazin-4-amine] | > 6.00 |  | > 8.00 | > 6.00 | > 7.00 | > 6.00 | > 7.00 | > 6.00 | > 6.00 | > 6.00 |
| COc1ccc(CNc2cc(C)nc3c(-c4ccc5c(c4)c(C)nn5C)c(C)nn23)cn1 [Example 14, 3-(1,3-dimethyl-1H-indazol-5-yl)-N-((6-methoxypyridin-3-yl)methyl)-2,5-dimethylpyrazolo[1,5-a]pyrimidin-7-amine] | > 6.00 | > 6.00 | > 7.00 | > 6.00 | > 8.00 | > 8.00 | > 6.00 | > 7.00 | > 6.00 | > 6.00 |
| Cc1cc(NCc2ccc(C(F)(F)F)nc2)n2nc(C)c(-c3ccc4c(c3)c(C)nn4C)c2n1 [Example 17, 3-(1,3-dimethyl-1H-indazol-5-yl)-2,5-dimethyl-N-((6-trifluoromethylpyridin-3-yl)methyl)pyrazolo[1,5-a]pyrimidin-7-amine] | > 6.00 | > 6.00 | > 6.00 | > 6.00 | > 6.00 | > 6.00 | > 7.00 | > 6.00 |  |  |
| Cc1nc(NCc2ccc(NS(C)(=O)=O)cc2)n2nc(C)c(-c3ccc4c(c3)c(C)nn4C)c2n1 [Example 26, N-(4-(((8-(1,3-dimethyl-1H-indazol-5-yl)-2,7-dimethylpyrazolo[1,5-a][1,3,5]triazin-4-yl)amino)meth-yl)phenyl)methane-sulfonamide] |  | > 6.00 | > 6.00 | > 7.00 | > 7.00 | > 7.00 | > 7.00 | > 7.00 | > 8.00 | > 7.00 |
| COc1ccc(CNc2cc(C)nn3c(-c4ccc5c(c4)c(C)nn5C)c(C)nc23)cc1 [Example 6, 3-(1,3-dimethyl-1H-indazol-5-yl)-N-(4-methoxybenzyl)-2,6-dimethylimidazo[1,2-b]pyridazin-8-amine] | > 6.00 |  | > 6.00 | > 6.00 | > 6.00 | > 6.00 |  | > 6.00 | > 6.00 | > 6.00 |
| Cc1ccc(CNc2cc(C)nc3c(-c4ccc5c(c4)c(C)nn5C)c(C)nn23)cn1 [Example 9, 3-(1,3-dimethyl-1H-indazol-5-yl)-2,5-dimethyl-N-((6-methylpyridin-3-yl)methyl)pyrazolo[1,5-a]pyrimidin-7-amine] | > 7.00 | > 6.00 | > 7.00 | > 8.00 | > 8.00 | > 7.00 | > 7.00 | > 7.00 | > 8.00 | > 7.00 |
| Cc1nc(NCc2ccc(S(C)(=O)=O)cc2)n2nc(C)c(-c3ccc4c(c3)c(C)nn4C)c2n1 [Example 25, 8-(1,3-dimethyl-1H-indazol-5-yl)-2,7-dimethyl-N-(4-(methyl-sulfonyl)benzyl)pyrazolo[1,5-a][1,3,5]triazin-4-amine] | > 8.00 | > 8.00 | > 9.00 | > 8.00 | > 8.00 | > 9.00 | > 8.00 | > 8.00 | > 8.00 | > 8.00 |
| Cc1cc(NCc2cccs2)n2nc(C)c(-c3ccc4c(c3)c(C)nn4C)c2n1 [Example 15, 3-(1,3-dimethyl-1H-indazol-5-yl)-2,5-dimethyl-N-(thiophen-2-ylmethyl)pyrazolo[1,5-a]pyrimidin-7-amine] | > 7.00 | > 7.00 | > 7.00 | > 7.00 | > 7.00 | > 7.00 | > 7.00 | > 7.00 | > 7.00 | > 7.00 |
| Cc1cc(NCc2cccs2)c2nc(C)c(-c3ccc4c(c3)c(C)nn4C)n2n1 [Example 5, 3-(1,3-dimethyl-1H-indazol-5-yl)-2,6-dimethyl-N-(thiophen-2-ylmethyl)imidazo[1,2-b]pyridazin-8-amine] |  | > 7.00 | > 7.00 | > 7.00 | > 7.00 | > 7.00 | > 7.00 | > 7.00 | > 9.00 | > 6.00 |
| Cc1ccc(CNc2nc(C)nc3c(-c4ccc5c(c4)c(C)nn5C)c(C)nn23)cn1 [Example 22, 8-(1,3-dimethyl-1H-indazol-5-yl)-2,7-dimethyl-N-((6-methylpyridin-3-yl)methyl)pyrazolo[1,5-a][1,3,5]triazin-4-amine] | > 7.00 | > 6.00 | > 9.00 | > 8.00 | > 9.00 | > 6.00 | > 8.00 | > 7.00 | > 8.00 | > 7.00 |
| Cc1nc(NCc2ccc(S(N)(=O)=O)cc2)n2nc(C)c(-c3ccc4c(c3)c(C)nn4C)c2n1 [Example 23, 4-(((8-(1,3-dimethyl-1H-indazol-5-yl)-2,7-dimethylpyrazolo[1,5-a][1,3,5]triazin-4-yl)amino)methyl)benzene-sulfonamide] | > 7.00 | > 7.00 | > 7.00 | > 7.00 | > 7.00 | > 8.00 | > 8.00 | > 7.00 | > 7.00 | > 7.00 |
| COc1ccc(CNc2cc(C)nc3c(-c4ccc5c(c4)c(C)nn5C)c(C)nn23)cc1 [Example 10, 3-(1,3-dimethyl-1H-indazol-5-yl)-N-(4-methoxybenzyl)-2,5-dimethylpyrazolo[1,5-a]pyrimidin-7-amine] | > 7.00 | > 6.00 | > 6.00 | > 6.00 | > 7.00 | > 7.00 | > 6.00 | > 7.00 | > 6.00 | > 6.00 |
| Cc1cc(NCc2ccc(Cl)cc2)c2nc(C)c(-c3ccc4c(c3)c(C)nn4C)n2n1 [Example 3, N-(4-chlorobenzyl)-3-(1,3-dimethyl-1H-indazol-5-yl)-2,6-dimethylimidazo[1,2-b]pyridazin-8-amine] |  | > 6.00 | > 6.00 | > 6.00 | > 6.00 | > 6.00 | > 6.00 | > 6.00 | > 7.00 | > 6.00 |
| Cc1cc(NCc2ccccc2)n2nc(C)c(-c3ccc4c(c3)c(C)nn4C)c2n1 [Example 18, N-(benzyl)-3-(1,3-dimethyl-1H-indazol-5-yl)-2,5-dimethylpyrazolo[1,5-a]pyrimidin-7-amine] | > 6.00 | > 6.00 | > 7.00 | > 7.00 | > 7.00 | > 6.00 | > 8.00 |  |  |  |
| COc1ccc(CNc2cc(C)nn3c(-c4ccc5c(c4)c(C)nn5C)c(C)nc23)cn1 [Example 4, 3-(1,3-dimethyl-1H-indazol-5-yl)-N-((6-methoxypyridin-3-yl)methyl)-2,6-dimethylimidazo[1,2-b]pyridazin-8-amine] |  | > 6.00 | > 6.00 | > 7.00 | > 7.00 | > 7.00 | > 7.00 | > 7.00 | > 7.00 | > 6.00 |
| Cc1nc(NCc2cccs2)n2nc(C)c(-c3ccc4c(c3)c(C)nn4C)c2n1 [Example 27, 8-(1,3-dimethyl-1H-indazol-5-yl)-2,7-dimethyl-N-(thiophen-2-ylmethyl)pyrazolo[1,5-a][1,3,5]triazin-4-amine] |  | > 7.00 | > 7.00 | > 9.00 | > 8.00 | > 9.00 | > 7.00 | > 7.00 | > 9.00 | > 7.00 |
| COc1ccc(CNc2nc(C)nc3c(-c4ccc5c(c4)c(C)nn5C)c(C)nn23)cn1 [Example 28, 8-(1,3-dimethyl-1H-indazol-5-yl)-N-((6-methoxypyridin-3-yl)methyl)-2,7-dimethylpyrazolo[1,5-a][1,3,5]triazin-4-amine] |  | > 6.00 | > 6.00 | > 7.00 | > 7.00 | > 7.00 | > 7.00 | > 7.00 | > 8.00 | > 6.00 |
